Results from BindingDB's records for doi:10.1021/jm00346a010 (1982).
pKi: −log10 of the molar value.

Experiments:
[1] = molecular target: Adenylate kinase (Escherichia coli) (UniProt P69441); experiment: Ability to inhibit Escherichia coli adenylate kinase II, activity expressed as Inhibition constant
[2] = molecular target: Adenylate kinase (Escherichia coli) (UniProt P69441); experiment: Ability to inhibit Escherichia coli adenylate kinase III, activity expressed as Inhibition constant; Non competitive inhibition

Compound `O=C(NCCCCCNc1ncnc2c1ncn2C1O[C@H](COP(=O)(O)OP(=O)(O)OP(=O)(O)O)[C@@H](O)[C@H]1O)OCc1ccccc1` (stereo not given in full) has a pKi [1] of 2.33.

Work on `CN(CCCN(C)C(=O)CCCCNc1ncnc2c1ncn2[C@@H]1O[C@H](COP(=O)(O)OP(=O)(O)OP(=O)(O)O)[C@@H](O)[C@H]1O)C(=O)CCCCNC(=O)OCc1ccccc1` yielded a pKi [1] of 2.17.

`O=C(CI)NCCCCCNc1ncnc2c1ncn2[C@@H]1O[C@H](COP(=O)(O)OP(=O)(O)OP(=O)(O)O)[C@@H](O)[C@H]1O` gave a pKi [2] of 2.32.

In the case of `NCCCCCCNc1nc2c(N)ncnc2n1C1O[C@H](COP(=O)(O)OP(=O)(O)OP(=O)(O)O)[C@@H](O)[C@H]1O` (stereo not given in full), the pKi [1] was 2.14.

Compound `CC(=O)NCCCCCCNc1nc2c(N)ncnc2n1C1O[C@H](COP(=O)(O)OP(=O)(O)OP(=O)(O)O)[C@@H](O)[C@H]1O` (stereo not given in full) has a pKi [1] of 2.17.
